Assay results reported in patent publication US20240270762A1, “PENICILLIN-BINDING PROTEIN INHIBITORS” (priority 2021, published 2024).
Values after ≈ are worked out from the molar mass of the structure shown.

Tests used:
Experiment in all cases: Liquid broth MIC in Fastidious broth
N. gonorrhoeae WHO L = conditions: Neisseria gonorrhoeae, read-out: Minimum Inhibitory Concentration, WHO L
N. gonorrhoeae WHO G = conditions: Neisseria gonorrhoeae, read-out: Minimum Inhibitory Concentration, WHO G
N. gonorrhoeae WHO X = conditions: Neisseria gonorrhoeae, read-out: Minimum Inhibitory Concentration, WHO X

Cc1cc(C(=O)NCCCN2CCN(C(=O)NC(C(=O)N[C@H]3Cc4ccc(F)c(C(=O)O)c4OB3O)c3cc(F)c(O)c(O)c3Cl)C(=O)C2=O)c(F)cn1 (stereo partly drawn) [Example 301, (3R)-3-(2-(2-chloro-5-fluoro-3,4-dihydroxyphenyl)-2-(4-(3-(5-fluoro-2-methylisonicotinamido)propyl)-2,3-dioxopiperazine-1-carboxamido)acetamido)-7-fluoro-2-hydroxy-3,4-dihydro-2H-benzo[e][1,2]oxaborinine-8-carboxylic acid]
MIC (N. gonorrhoeae WHO L): > 64 µg/mL
MIC (N. gonorrhoeae WHO G): 16 to 32 µg/mL (≈ 20.6 to 41.2 µM)
MIC (N. gonorrhoeae WHO X): > 64 µg/mL

O=C(NCCCN1CCN(C(=O)N[C@H](C(=O)N[C@H]2Cc3ccc(F)c(C(=O)O)c3OB2O)c2cc(F)c(O)c(O)c2Cl)C(=O)C1=O)c1cccc(O)c1Cl [Example 302, (R)-3-((S)-2-(4-(3-(2-chloro-3-hydroxybenzamido)propyl)-2,3-dioxopiperazine-1-carboxamido)-2-(2-chloro-5-fluoro-3,4-dihydroxyphenyl)acetamido)-7-fluoro-2-hydroxy-3,4-dihydro-2H-benzo[e][1,2]oxaborinine-8-carboxylic acid]
MIC (N. gonorrhoeae WHO L): > 64 µg/mL
MIC (N. gonorrhoeae WHO G): > 64 µg/mL
MIC (N. gonorrhoeae WHO X): > 64 µg/mL

O=C(NCCCN1CCN(C(=O)N[C@@H](C(=O)N[C@H]2Cc3ccc(F)c(C(=O)O)c3OB2O)c2cc(F)c(O)c(O)c2Cl)C(=O)C1=O)c1cccc(O)c1Cl [Example 303, (R)-3-((R)-2-(4-(3-(2-chloro-3-hydroxybenzamido)propyl)-2,3-dioxopiperazine-1-carboxamido)-2-(2-chloro-5-fluoro-3,4-dihydroxyphenyl)acetamido)-7-fluoro-2-hydroxy-3,4-dihydro-2H-benzo[e][1,2]oxaborinine-8-carboxylic acid]
MIC (N. gonorrhoeae WHO L): > 64 µg/mL
MIC (N. gonorrhoeae WHO G): 4 to 8 µg/mL (≈ 5.04 to 10.1 µM)
MIC (N. gonorrhoeae WHO X): > 64 µg/mL

O=C(NCCCN1CCN(C(=O)NC(C(=O)N[C@H]2Cc3ccc(F)c(C(=O)O)c3OB2O)c2cc(F)c(O)c(O)c2Cl)C(=O)C1=O)c1ccc(O)c(F)c1 (stereo partly drawn) [Example 304, (3R)-3-(2-(2-chloro-5-fluoro-3,4-dihydroxyphenyl)-2-(4-(3-(3-fluoro-4-hydroxybenzamido)propyl)-2,3-dioxopiperazine-1-carboxamido)acetamido)-7-fluoro-2-hydroxy-3,4-dihydro-2H-benzo[e][1,2]oxaborinine-8-carboxylic acid]
MIC (N. gonorrhoeae WHO L): > 64 µg/mL
MIC (N. gonorrhoeae WHO G): 16 to 32 µg/mL (≈ 20.6 to 41.1 µM)
MIC (N. gonorrhoeae WHO X): > 64 µg/mL

O=C(NCCCN1CCN(C(=O)NC(C(=O)N[C@H]2Cc3ccc(F)c(C(=O)O)c3OB2O)c2cc(F)c(O)c(O)c2Cl)C(=O)C1=O)c1ccc(O)c(Cl)c1 (stereo partly drawn) [Example 305, (3R)-3-(2-(4-(3-(3-chloro-4-hydroxybenzamido)propyl)-2,3-dioxopiperazine-1-carboxamido)-2-(2-chloro-5-fluoro-3,4-dihydroxyphenyl)acetamido)-7-fluoro-2-hydroxy-3,4-dihydro-2H-benzo[e][1,2]oxaborinine-8-carboxylic acid]
MIC (N. gonorrhoeae WHO L): > 64 µg/mL
MIC (N. gonorrhoeae WHO G): 16 to 32 µg/mL (≈ 20.1 to 40.3 µM)
MIC (N. gonorrhoeae WHO X): > 64 µg/mL

O=C(NCCCN1CCN(C(=O)NC(C(=O)N[C@H]2Cc3ccc(F)c(C(=O)O)c3OB2O)c2cc(F)c(O)c(O)c2Cl)C(=O)C1=O)c1ccc(O)c(F)c1F (stereo partly drawn) [Example 306, (3R)-3-(2-(2-chloro-5-fluoro-3,4-dihydroxyphenyl)-2-(4-(3-(2,3-difluoro-4-hydroxybenzamido)propyl)-2,3-dioxopiperazine-1-carboxamido)acetamido)-7-fluoro-2-hydroxy-3,4-dihydro-2H-benzo[e][1,2]oxaborinine-8-carboxylic acid]
MIC (N. gonorrhoeae WHO L): > 64 µg/mL
MIC (N. gonorrhoeae WHO G): 16 to 32 µg/mL (≈ 20.1 to 40.2 µM)
MIC (N. gonorrhoeae WHO X): > 64 µg/mL

O=C(NCCCN1CCN(C(=O)NC(C(=O)N[C@H]2Cc3ccc(F)c(C(=O)O)c3OB2O)c2cc(F)c(O)c(O)c2Cl)C(=O)C1=O)c1ccc(O)cc1O (stereo partly drawn) [Example 307, (3R)-3-(2-(2-chloro-5-fluoro-3,4-dihydroxyphenyl)-2-(4-(3-(2,4-dihydroxybenzamido)propyl)-2,3-dioxopiperazine-1-carboxamido)acetamido)-7-fluoro-2-hydroxy-3,4-dihydro-2H-benzo[e][1,2]oxaborinine-8-carboxylic acid]
MIC (N. gonorrhoeae WHO L): > 64 µg/mL
MIC (N. gonorrhoeae WHO G): 16 to 32 µg/mL (≈ 20.6 to 41.2 µM)
MIC (N. gonorrhoeae WHO X): > 64 µg/mL
